Data on one compound can be found in patent US20240374546A1, “USES AND METHODS FOR PROMOTING INCREASED MITOCHONDRIAL MASS AND FUNCTION” (Brightseed, Inc., priority 2022, published 2024).

SMILES strings stand for the structures.

One data set relates to Parp2 mRNA. Briefly: qPCR mouse liver, Parp2 mRNA. Format: in vivo. Conditions: HFD+NCT vs HFD. The protocol: (§1) Total RNA was isolated from liver tissues and primary human hepatocytes using Trizol (Invitrogen). cDNA was amplified using 3 μg of total RNA using qScript cDNA SuperMix (Quanta BioSciences, Beverly, MA, USA). Quantitative real time PCR (RT-PCR) analysis was performed using SYBR® Select Master Mix (Applied Biosystems) and an ABI 7900HT thermal cycler (Applied Biosystems, Thermo Fisher Scientific). Ct values were normalized to 18s rRNA and are expressed as fold change over samples from mice fed NC or cultured human hepatocytes without NCT.
On the technique in general: In qPCR the cycle at which signal appears reflects the starting amount.

The next data set concerns total cellular NAD. As to the kind of experiment: Total NAD level in liver lysate. Format: in vivo, mouse. Conditions: HFD+NCT vs HFD. The protocol: Total NAD level in liver lysate was analyzed according to manufacturer's instructions using a calorimetric NAD+/NADH assay kit (Cat #MET-5014, Cell Biolabs, Inc. USA)
In another data set the target is T1, HNF4α (Mus musculus, UniProt P49698).
T1 construct: from tissue; host or cells: liver of C57BL/6J mice
As to the kind of experiment: Immunofluorescence of hepatic HNF4α in HFD mice. Format: in vivo. Conditions: oral NCT in HFD chow, 10 weeks. The protocol: Frozen liver sections were permeabilized using 0.3% Triton-X and incubated in antigen retrieval solution (Antigen retrieval citrate, Biogenex) at sub-boiling temperature for 10 min. Subsequently, sections were incubated with blocking buffer containing 5% normal donkey serum (Jackson Immuno Research) followed by incubation overnight at 4° C. with mouse anti-HNF4α monoclonal antibody (1:800, Cat #PP-H1415-00, R&D Systems), rabbit polyclonal anti-VDAC antibody (1:400, cat #PA1-954A, Invitrogen) and cleaved caspase3 antibody (1:500, cat #9664, Cell Signaling). Sections were washed and incubated for 1 hour at room temperature with anti-mouse secondary antibody coupled with Alexa fluor 488 (1:400, Invitrogen) and antirabbit secondary antibody coupled with rhodamine red. Nuclei were visualized by counterstaining with DAPI (40,6-diamidino-2-phenylindole, Sigma Aldrich). Slides were mounted using fluorescence mounting medium and images were obtained at 40× magnification using an Olympus IX71 fluorescence microscope. Fluorescence intensity of HNF4α-stained nuclei and VDAC stained mitochondria was calculated using MetaMorph TL software (version 7.6.5.0, Olympus). Fold change was calculated by normalizing to values from mice fed NC.

A short description of another data set: Microsomal stability. Format: in vitro ADME. Conditions: human microsomes compared with rodent.
The nature of data set [1]: Oil red O staining of liver sections. The data set is classed as in vivo, mouse. Conditions: HFD+NCT vs HFD, 10 weeks. The protocol:
Oil red O staining was performed as described previously (34). Slides containing frozen liver tissue sections from mice were air dried for 10-20 min followed by rehydration in distilled water. Sections were immersed in absolute propylene glycol (Cat #151957, MP Biomedicals, LLC, USA) for 2 min followed by 0.5% in Oil red O solution (Cat #K043, Poly Scientific R&D, USA) for 2 hours. Slides were then differentiated in 85% propylene glycol solution, washed with dH2O for 2 hours, and mounted using glycerin jelly mounting medium. All slides were scanned at a magnification of 20× using the Aperio Scanscope FL system (Aperio Technologies Inc., Vista, CA, USA). The liver area stained with oil red O was measured using image J software as described, with some modifications as follow, Oil red O-stained liver images were opened in Image J software. Using the Analyze>Set Scale command, the scale bar of the images was set to 200 um. RGB images were then converted into gray scale images using the Image>Type>RGB Stack command and were split into red, blue and green channels. Using the Image >Adjust>Threshold command, the threshold was manually set to highlight the Oil red O stained lipid droplets in the green channel. […] Fold change was calculated by normalizing the values to images from mice fed normal chow.

Another data set concerns Sirtuin1 mRNA. As to the kind of experiment: qPCR primary human hepatocytes, Sirtuin1 mRNA. The data set is classed as cell-based. The settings on record: NCT 5, 15, 40 μM. The method, then:
(§2) Experiments with primary human hepatocytes were performed by CN-Bio (Cambridge, UK). Briefly, primary human hepatocytes (PHHs), human Kupffer cells (HKs) and human stellate cells (HSCs) were seeded onto CN-Bio's PhysioMimix LC12 MPS culture plates at 6×10^5 cells for PHHs and 6×10^4 cells for HKs and HSCs in 1.6 ml of CN-Bio's HEP-lean media with 5% FCS. Throughout the experiment the cells were maintained at a flow rate of 1 μl/s. After 24 hours (Day 1) of seeding, the media was changed to HEP-lean media and the cells were incubated until day 4 to allow the cells to form microtissues. At day 4 post seeding, media was changed to HEP-fat media and treated with DMSO or NCT (5, 15, 40 μM). Media was replaced on days 6 and 8. Cells were harvested on day 10 for RNA extraction and culture media was collected for ELISA analysis.
as §1

For another data set, the system named is cytochrome C. As to the kind of experiment: Western blot, mouse liver, cytochrome C. Format: in vivo. Conditions: HFD+NCT vs HFD. The protocol: Mouse liver extracts were prepared by incubation in RIPA buffer (Invitrogen) containing protease inhibitors (Calbiochem, San Diego, CA). Protein was quantified by BCA assay (Thermo Scientific). Protein ([…] for cytochrome C) was separated on 12% or 16% Tri-Glycine gels (Invitrogen) and transferred to Immobilon P membrane (0.2 μm pore size, Millipore). After 1 hour in phosphate-buffered saline-Tween (PBST) with 3% milk, membranes were incubated with antibodies to PPARGC1A(PGC1α) (Cat #NBP1-04676, Novus, 1:1000), SDHA XP (Cat #11998, Cell Signaling 1:1000), or Cytochrome C (Cat #4280, Cell Signaling 1:500), followed by secondary antibody conjugated to horseradish peroxidase (1:5000, Jackson Immune or Cell Signaling). […] After detection, membrane was incubated with Ponceau S solution (Sigma) for 1 hr for normalization to loaded protein.
(A western blot detects proteins with antibodies after separation by electrophoresis.)

The next data set has as its system Sirtuin3 mRNA. Briefly: qPCR primary human hepatocytes, Sirtuin3 mRNA. The settings on record: NCT 5, 15, 40 μM. Format: cell-based. The protocol:
as §2, §1

For data set [2] the following is noted: previous two-week IP administration, obese mice; cited from earlier work.
The nature of data set [3]: Subcutaneous delivery of NCT to DIO mice. Conditions: 2 weeks. Format: in vivo, mouse. The method, then: 12-week-old C57BL/6J DIO male mice were purchased from Jackson laboratory (cat #380050) and were fed with high fat diet (Research Diets, cat #D12492 60 kcal % fat). […] 14 week old mice were injected subcutaneously using sterile insulin syringes filled with DMSO or NCT (200 mg/kg of mouse body weight) bid for 2 weeks. For oral gavage, 14-week-old C57BL/6J DIO male mice were fed by oral gavage using a feeding needle attached to a sterile 1 ml syringe filled with 200 μL of methyl cellulose (MC, vehicle control) or 200 μL of NCT (200 mg/kg) dissolved in methyl cellulose twice a day for 2 weeks. […] For analysis all mice were sacrificed after 2 weeks of treatment.

T1 sequence (P49698 whole entry): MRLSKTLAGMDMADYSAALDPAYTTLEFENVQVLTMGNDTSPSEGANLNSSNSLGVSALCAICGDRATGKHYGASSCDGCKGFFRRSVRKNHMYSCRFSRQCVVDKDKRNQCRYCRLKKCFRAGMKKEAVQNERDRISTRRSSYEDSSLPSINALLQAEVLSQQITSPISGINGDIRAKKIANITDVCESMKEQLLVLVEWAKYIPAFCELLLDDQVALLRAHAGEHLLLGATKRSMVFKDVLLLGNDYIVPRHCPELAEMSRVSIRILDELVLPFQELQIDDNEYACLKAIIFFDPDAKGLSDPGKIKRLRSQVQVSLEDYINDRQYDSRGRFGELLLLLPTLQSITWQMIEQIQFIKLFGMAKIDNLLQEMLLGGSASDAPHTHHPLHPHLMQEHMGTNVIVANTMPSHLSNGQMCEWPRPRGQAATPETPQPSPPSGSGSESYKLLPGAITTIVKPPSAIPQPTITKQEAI

As for `O=C(/C=C/c1ccc(O)c(O)c1)NCCc1ccc(O)cc1` [NCT, N-transcaffeoyltyramine], in the data set with Parp2 mRNA, the “Parp2 mRNA level” value is “not modulated”. Further, the “total cellular NAD in liver” value with total cellular NAD was “substantial increase”. Moreover, the “hepatic HNF4α expression (HFD-induced decrease)” value at HNF4α was “reversed”. Besides, in the data set “Microsomal stability”, the “microsomal stability, human versus rodent microsomes” value is “much more stable”. The “Oil Red O staining of liver” value in data set [1] is on record as “decreased Oil Red O staining”. Moreover, in the data set with Sirtuin1 mRNA, the “Sirtuin1 mRNA in primary human hepatocytes” value is given as “significant effect”. In addition, the “hepatic cytochrome C protein level (HFD-induced decrease)” value with cytochrome C was “reversed”. The “Sirtuin3 mRNA in primary human hepatocytes” value with Sirtuin3 mRNA is on record as “significant effect”. Further, in data set [2], the body weight result is “no effect on body weight” and the hepatic steatosis result is “decreased hepatic steatosis”. In [3] (200 mg/kg bid, vs DMSO), the “liver color after subcutaneous NCT” value was “No difference in liver color”. Moreover, the “outcome of subcutaneous delivery” value in [3] (200 mg/kg, 2 doses per day, subcutaneous) was “compound precipitation”.
